Source: US20160287589A1, “SUBSTITUTED-IMIDAZOPYRIDAZINES” (BAYER PHARMA AKTIENGESELLSCHAFT, priority 2013, published 2016)

Legend:
[1] = target: T1, MKNK1 (Homo sapiens, UniProt Q9BUB5, T385D); assay: MKNK1 kinase assay (MKNK1 TR-FRET assay); format: biochemical; conditions: 10 μM ATP, 15 min preincubation
T1 construct: GST (N); purchased Carna Biosciences 02-145; host or cells: insect cells (baculovirus expression system)

[2] = target: T1, MKNK1; assay: MKNK1 kinase high ATP assay (TR-FRET-based); format: biochemical; conditions: 2 mM ATP, 15 min preincubation
Outline: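 GST-tagged full-length human MKNK1 (aa 1-424, T344D) from insect cells, preincubated with compound 15 min at 22 °C. Reaction 30 min at 22 °C with 2 mM ATP and 0.06 μM biotinylated peptide in HEPES pH 7.5, Mg2+, DTT. Phosphopeptide detected by TR-FRET (665/622 ratio) with anti-pS6 (pSer236) antibody; normalised to no-inhibitor and no-enzyme controls.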

T1 sequence (Q9BUB5 1-424 isoform Q9BUB5-2 T344D): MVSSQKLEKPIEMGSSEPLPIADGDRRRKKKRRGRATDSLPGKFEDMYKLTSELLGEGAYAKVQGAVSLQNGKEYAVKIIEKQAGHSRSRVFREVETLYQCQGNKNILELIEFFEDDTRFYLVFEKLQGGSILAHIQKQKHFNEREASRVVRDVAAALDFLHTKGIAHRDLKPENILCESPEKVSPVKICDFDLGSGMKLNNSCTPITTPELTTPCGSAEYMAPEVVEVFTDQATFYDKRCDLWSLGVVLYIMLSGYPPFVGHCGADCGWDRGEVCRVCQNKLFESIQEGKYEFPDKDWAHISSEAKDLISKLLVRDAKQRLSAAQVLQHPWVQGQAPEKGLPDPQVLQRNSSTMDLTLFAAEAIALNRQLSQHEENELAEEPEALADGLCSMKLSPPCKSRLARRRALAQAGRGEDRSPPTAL

CCN(CCOC)c1nccc2oc(-c3cnc4ccc(O[C@H]5Cc6ccccc6[C@@H]5N)nn34)cc12 [III-111, 2-(6-{[(1S,2S)-1-Amino-2,3-dihydro-1H-inden-2-yl]oxy}imidazo[1,2-b]pyridazin-3-yl)-N-ethyl-N-(2-methoxyethyl)furo[3,2-c]pyridin-4-amine]
IC50 ([1]; Table 1c): 3.8 nM | IC50 ([2]; Table 2c): 42.2 nM

O=C(NCCOc1ccc2ncc(-c3cc4ccccc4o3)n2n1)C1CC1 [Example I-15, N-(2-{[3-(1-Benzofuran-2-yl)imidazo[1,2-b]pyridazin-6-yl]oxy}ethyl)-cyclopropanecarboxamide]
IC50 ([1]; Table 1a): 5.6 nM | IC50 ([2]; Table 2a): 12.5 nM

COc1nccc2oc(-c3cnc4ccc(OCCC5CCC(=O)N5)nn34)cc12 (stereo not shown) [IV-2, 5-(2-{[3-(4-Methoxyfuro[3,2-c]pyridin-2-yl)imidazo[1,2-b]pyridazin-6-yl]oxy}-ethyl)pyrrolidin-2-one]
IC50 ([1]; Table 1d): 11 nM | IC50 ([2]; Table 2d): 26 nM

CC1(C)CN(c2nccc3oc(-c4cnc5ccc(OCCCS(C)(=O)=O)nn45)cc23)CCN1 [III-131, 3-[4-(3,3-dimethylpiperazin-1-yl)furo[3,2-c]pyridin-2-yl]-6-[3-(methylsulfonyl)propoxy] imidazo[1,2-b]pyridazine]
IC50 ([1]; Table 1c): 11.9 nM | IC50 ([2]; Table 2c): 7 nM

CC(C)(C)N1CCN(c2nccc3oc(-c4cnc5ccc(O[C@H]6C[C@H](N)C6)nn45)cc23)CC1 [III-99, trans-3-({3-[4-(4-tert-butylpiperazin-1-yl)furo[3,2-c]pyridin-2-yl]imidazo[1,2-b]pyridazin-6-yl}oxy)cyclobutanamine]
IC50 ([1]; Table 1c): 24.4 nM | IC50 ([2]; Table 2c): 45.6 nM

COC[C@@H]1CCCN1c1nccc2oc(-c3cnc4ccc(O[C@H](C)CN)nn34)cc12 [III-136, (2R)-2-[(3-{4-[(2S)-2-(methoxymethyl)pyrrolidin-1-yl]furo[3,2-c]pyridin-2-yl}imidazo[1,2-b]pyridazin-6-yl)oxy]propan-1-amine]
IC50 ([1]; Table 1c): 52.5 nM | IC50 ([2]; Table 2c): 122 nM

C[C@@H]1COCCN1c1nccc2oc(-c3cnc4ccc(OC[C@@H](C)N)nn34)cc12 [III-3, (2R)-1-[(3-{4-[(3R)-3-Methylmorpholin-4-yl]furo[3,2-c]pyridin-2-yl}imidazo-[1,2-b]pyridazin-6-yl)oxy]propan-2-amine]
IC50 ([1]; Table 1c): 6.7 nM | IC50 ([2]; Table 2c): 11.7 nM

COc1ccc2ncc(-c3cc4c(N5CCNC[C@H]5C)cccc4o3)n2n1 [II-44, 6-methoxy-3-{4-[(2R)-2-methylpiperazin-1-yl]-1-benzofuran-2-yl}imidazo[1,2-b]pyridazine]
IC50 ([1]; Table 1b): 2.9 nM | IC50 ([2]; Table 2b): 3.8 nM

O=C(c1ccccn1)N1CCC[C@H]1CCOc1ccc2ncc(-c3cc4ccccc4o3)n2n1 [Example I-62, [(2S)-2-(2-{[3-(1-Benzofuran-2-yl)imidazo[1,2-b]-pyridazin-6-yl]oxy}ethyl)pyrrolidin-1-yl](pyridin-2-yl)methanone]
IC50 ([1]; Table 1a): 3.5 nM | IC50 ([2]; Table 2a): 6.8 nM

C[C@@H]1CN(c2nccc3oc(-c4cnc5ccc(OCCCS(C)(=O)=O)nn45)cc23)CCO1 [III-119, 3-{4-[(2R)-2-methylmorpholin-4-yl]furo[3,2-c]pyridin-2-yl}-6-[3-(methylsulfonyl)propoxy] imidazo[1,2-b]pyridazine]
IC50 ([1]; Table 1c): 8.8 nM | IC50 ([2]; Table 2c): 17 nM

CCN(CCOC)c1nccc2oc(-c3cnc4ccc(O[C@H]5Cc6ccccc6[C@H]5N)nn34)cc12 [III-112, 2-(6-{[(1R,2S)-1-Amino-2,3-dihydro-1H-inden-2-yl]oxy}imidazo[1,2-b]pyridazin-3-yl)-N-ethyl-N-(2-methoxyethyl)furo[3,2-c]pyridin-4-amine]
IC50 ([1]; Table 1c): 15.6 nM | IC50 ([2]; Table 2c): 88.1 nM

N[C@H]1C[C@H](Oc2ccc3ncc(-c4cc5c(N6CCN(c7ccccc7)CC6)nccc5o4)n3n2)C1 [III-106, trans-3-({3-[4-(4-Phenylpiperazin-1-yl)furo[3,2-c]pyridin-2-yl]imidazo[1,2-b]pyridazin-6-yl}oxy)cyclobutanamine]
IC50 ([1]; Table 1c): 10.2 nM | IC50 ([2]; Table 2c): 9.2 nM

C[C@H](N)COc1ccc2ncc(-c3cc4c(N5CCNCC5)nccc4o3)n2n1 [III-17, (2S)-1-({3-[4-(Piperazin-1-yl)furo[3,2-c]pyridin-2-yl]imidazo[1,2-b]pyridazin-6-yl}oxy)propan-2-amine]
IC50 ([1]; Table 1c): 18.3 nM | IC50 ([2]; Table 2c): 44.2 nM

C[C@@H]1CN(c2cccc3oc(-c4cnc5ccc(O[C@H]6C[C@H](N)C6)nn45)cc23)CCO1 [II-73, trans-3-[(3-{4-[(2R)-2-methylmorpholin-4-yl]-1-benzofuran-2-yl}imidazo[1,2-b]pyridazin-6-yl)oxy]cyclobutanamine]
IC50 ([1]; Table 1b): 42.4 nM | IC50 ([2]; Table 2b): 47.6 nM

CC(=O)N[C@H]1C[C@H](Oc2ccc3ncc(-c4cc5ccccc5o4)n3n2)C1 [Example I-11, N-(trans-3-{[3-(1-Benzofuran-2-yl)imidazo[1,2-b]pyridazin-6-yl]oxy}cyclobutyl)-acetamide]
IC50 ([1]; Table 1a): 2.9 nM | IC50 ([2]; Table 2a): 10 nM

O=C1CC[C@H](COc2ccc3ncc(-c4cc5c(N6CCN(c7ccccc7)CC6)cccc5o4)n3n2)N1 [II-14, (5R)-5-[({3-[4-(4-Phenylpiperazin-1-yl)-1-benzofuran-2-yl]imidazo[1,2-b]-pyridazin-6-yl}oxy)methyl]pyrrolidin-2-one]
IC50 ([1]; Table 1b): 7 nM | IC50 ([2]; Table 2b): 27 nM

CS(=O)(=O)CCCOc1ccc2ncc(-c3cc4c(N5CCOCC5)nccc4o3)n2n1 [III-42, 6-[3-(Methylsulfonyl)propoxy]-3-[4-(morpholin-4-yl)furo[3,2-c]pyridin-2-yl]imidazo[1,2-b]pyridazine]
IC50 ([1]; Table 1c): 2.2 nM | IC50 ([2]; Table 2c): 4.7 nM

COc1nccc2oc(-c3cnc4ccc(OC[C@H]5CCC(=O)N5)nn34)cc12 [IV-6, (5R)-5-({[3-(4-Methoxyfuro[3,2-c]pyridin-2-yl)imidazo[1,2-b]pyridazin-6-yl]-oxy}methyl)pyrrolidin-2-one]
IC50 ([1]; Table 1d): 4 nM | IC50 ([2]; Table 2d): 8 nM

CCN(CCOC)c1nccc2oc(-c3cnc4ccc(O[C@H](C)CN)nn34)cc12 [III-32, 2-(6-{[(2R)-1-Aminopropan-2-yl]oxy}imidazo[1,2-b]pyridazin-3-yl)-N-ethyl-N-(2-methoxyethyl)furo[3,2-c]pyridin-4-amine]
IC50 ([1]; Table 1c): 0.6 nM | IC50 ([2]; Table 2c): 1.5 nM

O=C(NCCOc1ccc2ncc(-c3cc4ccccc4o3)n2n1)C1CCC1 [Example I-68, N-(2-{[3-(1-Benzofuran-2-yl)imidazo[1,2-b]-pyridazin-6-yl]oxy}ethyl)cyclobutane-carboxamide]
IC50 ([1]; Table 1a): 7.8 nM | IC50 ([2]; Table 2a): 20.6 nM

C[C@H]1CNCCN1c1cccc2oc(-c3cnc4ccc(OC[C@H]5CCC(=O)N5)nn34)cc12 [II-30, (5R)-5-{[(3-{4-[(2S)-2-methylpiperazin-1-yl]-1-benzofuran-2-yl}imidazo[1,2-b]pyridazin-6-yl)oxy]methyl}pyrrolidin-2-one]
IC50 ([1]; Table 1b): 2.3 nM | IC50 ([2]; Table 2b): 0.6 nM

O=C(N[C@H]1C[C@H](Oc2ccc3ncc(-c4cc5ccccc5o4)n3n2)C1)C(F)(F)F [Example I-23, N-(trans-3-{[3-(1-Benzofuran-2-yl)imidazo[1,2-b]pyridazin-6-yl]oxy}cyclobutyl)-2,2,2-trifluoroacetamide]
IC50 ([1]; Table 1a): 15.7 nM | IC50 ([2]; Table 2a): 18.8 nM

O=C(c1ccno1)N1CCC[C@H]1CCOc1ccc2ncc(-c3cc4ccccc4o3)n2n1 [Example I-47, [(2S)-2-(2-{[3-(1-Benzofuran-2-yl)imidazo[1,2-b]-pyridazin-6-yl]oxy}ethyl)pyrrolidin-1-yl](1,2-oxazol-5-yl)methanone]
IC50 ([1]; Table 1a): 1.6 nM | IC50 ([2]; Table 2a): 2.2 nM

O=C1CC[C@H](COc2ccc3ncc(-c4cc5c(N6CCC(CO)CC6)nccc5o4)n3n2)N1 [III-77, (5R)-5-{[(3-{4-[4-(Hydroxymethyl)piperidin-1-yl]furo[3,2-c]pyridin-2-yl}imidazo[1,2-b]pyridazin-6-yl)oxy]methyl}pyrrolidin-2-one]
IC50 ([1]; Table 1c): 0.7 nM | IC50 ([2]; Table 2c): 1.1 nM

O=C(c1ccc(Cl)cc1)N1CCC[C@H]1CCOc1ccc2ncc(-c3cc4ccccc4o3)n2n1 [Example I-63, [(2S)-2-(2-{[3-(1-Benzofuran-2-yl)imidazo[1,2-b]-pyridazin-6-yl]oxy}ethyl)pyrrolidin-1-yl](4-chlorophenyl)methanone]
IC50 ([1]; Table 1a): 4 nM | IC50 ([2]; Table 2a): 10.1 nM

COc1cccc2oc(-c3cnc4ccc(OCCN5CCNC5=O)nn34)cc12 [Example I-12, 1-(2-{[3-(4-methoxy-1-benzofuran-2-yl)imidazo[1,2-b]pyridazin-6-yl]oxy}ethyl)-imidazolidin-2-one]
IC50 ([1]; Table 1a): 3.5 nM | IC50 ([2]; Table 2a): 10.2 nM

CC(C)(C)N1CCN(c2nccc3oc(-c4cnc5ccc(OC[C@H]6CCC(=O)N6)nn45)cc23)CC1 [III-63, (5R)-5-[({3-[4-(4-tert-Butylpiperazin-1-yl)furo[3,2-c]pyridin-2-yl]imidazo-[1,2-b]pyridazin-6-yl}oxy)methyl]pyrrolidin-2-one]
IC50 ([1]; Table 1c): 4.3 nM | IC50 ([2]; Table 2c): 12.6 nM

COc1nccc2oc(-c3cnc4ccc(OC[C@H]5CN(C(=O)C6CC6)CCO5)nn34)cc12 [IV-8, Cyclopropyl[(2R)-2-({[3-(4-methoxyfuro[3,2-c]pyridin-2-yl)imidazo[1,2-b]-pyridazin-6-yl]oxy}methyl)morpholin-4-yl]methanone]
IC50 ([1]; Table 1d): 4 nM | IC50 ([2]; Table 2d): 10 nM

C[C@@H]1COCCN1c1cccc2oc(-c3cnc4ccc(OC[C@@H]5CCC(=O)N5)nn34)cc12 [II-51, (5S)-5-{[(3-{4-[(3R)-3-methylmorpholin-4-yl]-1-benzofuran-2-yl}imidazo[1,2-b]pyridazin-6-yl)oxy]methyl}pyrrolidin-2-one]
IC50 ([1]; Table 1b): 2.8 nM | IC50 ([2]; Table 2b): 50.8 nM
